Source: ChEMBL document CHEMBL1201862, “PubChem BioAssay data set” (2004)
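Exposure lasted 48 hours, with cells grown in 96-well plates and compounds tested at five concentrations. Abbreviation: GI50, concentration required for 50% inhibition of growth.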 Active and inactive are the calls of the source. Rule as the data show it: active = GI50 up to about 1.1 µM and inactive = higher.

How the values were obtained:
Assay in all cases: growth of human tumour cells (NCI), 48 h
U-251 = system: U-251
SF-268 = system: SF-268
A549 = system: A549
SW-620 = system: SW-620
SK-MEL-28 = system: SK-MEL-28
M14 = system: M14
ACHN = system: ACHN
KM-20L2 = system: KM-20L2
RXF 393 = system: RXF 393
EKVX = system: EKVX
786-0 = system: 786-0
SK-MEL-2 = system: SK-MEL-2
CCRF-CEM = system: CCRF-CEM
DMS-114 = system: DMS-114
SK-OV-3 = system: SK-OV-3
OVCAR-4 = system: OVCAR-4

Measured: GI50

Cc1ccccc1NC(=O)c1nc(S)nc(N)c1-c1ccccc1C
inactive: U-251 > 100 µM | SF-268 > 100 µM | A549 > 100 µM | SW-620 > 100 µM | SK-MEL-28 > 100 µM | M14 > 100 µM | ACHN > 100 µM | KM-20L2 > 100 µM | RXF 393 > 100 µM | EKVX > 100 µM | 786-0 > 100 µM | SK-MEL-2 > 100 µM | CCRF-CEM > 100 µM | DMS-114 > 100 µM | SK-OV-3 > 100 µM | OVCAR-4 > 100 µM
